The CheMixHub viscosity set
Values joined by “and” are separate entries in the source; they are usually repeats but may differ in a detail not shown here. Identical values can stand only once.

Assay: xn = mol fraction of the nth substance listed

Cc1ccc(S(=O)(=O)[O-])cc1.O=C1CCC[NH+]1C1CCCCC1 + O
viscosity [mPa·s], 101 kPa
Conditions | x1 = 0.002718 | x1 = 0.008026 | x1 = 0.01073
298.15 K | 1.035 | – | 1.485
303.15 K | – | 1.165 | –

NCCCC(=O)O + O
viscosity, 100 kPa
Conditions | x1 = 0.0004 | x1 = 0.0007 | x1 = 0.0008999 | x1 = 0.001 | x1 = 0.0018 | x1 = 0.002695 | x1 = 0.004484 | x1 = 0.006266 | x1 = 0.008927
298.15 K | – | – | 0.905 mPa·s | – | – | 0.935 mPa·s | 0.963 mPa·s | 0.991 mPa·s | 1.03 mPa·s
308.15 K | 0.723 mPa·s | 0.728 mPa·s | 0.732 mPa·s | 0.731 mPa·s and 0.735 mPa·s | 0.742 mPa·s | 0.76 mPa·s | – | 0.814 mPa·s | 0.852 mPa·s
313.15 K | 0.655 mPa·s | 0.66 mPa·s | – | 0.662 mPa·s and 0.666 mPa·s | 0.672 mPa·s | – | – | – | –
318.15 K | 0.599 mPa·s | 0.603 mPa·s | 0.605 mPa·s | 0.605 mPa·s and 0.609 mPa·s | 0.614 mPa·s | 0.623 mPa·s | 0.64 mPa·s | 0.658 mPa·s | 0.684 mPa·s

O=C(O)CCl + O
293.35 K, 101 kPa
Conditions | viscosity [mPa·s]
x1 = 0.01308 | 11070
x1 = 0.02204 | 12080
x1 = 0.02477 | 11950
x1 = 0.0251 | 11580
x1 = 0.03355 | 12540
x1 = 0.05294 | 15100

O=C(O)[C@@H]1CCCN1 + O
viscosity [mPa·s], 101 kPa
Conditions | x1 = 0.00045 | x1 = 0.0009 | x1 = 0.00135 | x1 = 0.001798 | x1 = 0.002245 | x1 = 0.002695 | x1 = 0.003143 | x1 = 0.003588
293.15 K | 1.009 | 1.018 | 1.027 | 1.036 | 1.045 | 1.054 | 1.064 | 1.073
298.15 K | 0.8966 | 0.9039 | 0.9114 | 0.9192 | 0.9269 | 0.9349 | 0.9428 | 0.9507
303.15 K | 0.8027 | 0.809 | 0.8154 | 0.8221 | 0.8288 | 0.8354 | 0.8421 | 0.8487
308.15 K | 0.7236 | 0.7289 | 0.7344 | 0.7401 | 0.7456 | 0.7513 | 0.757 | 0.7625
313.15 K | 0.6566 | 0.6611 | 0.6658 | 0.6705 | 0.6753 | 0.68 | 0.6849 | 0.6894
318.15 K | 0.6007 | 0.6045 | 0.6085 | 0.6125 | 0.6164 | 0.6204 | 0.6244 | 0.6282

O=CC(Cl)(Cl)Cl + O
323.15 K, 101 kPa
Conditions | viscosity [mPa·s]
x1 = 0.05 | 1.031
x1 = 0.1 | 1.731
x1 = 0.15 | 2.671
x1 = 0.2 | 4.156
x1 = 0.25 | 5.987
x1 = 0.3 | 8.751
x1 = 0.35 | 11.36
x1 = 0.4 | 14.33
x1 = 0.425 | 15.57
x1 = 0.45 | 16.37
x1 = 0.465 | 17.06
x1 = 0.475 | 17.38
x1 = 0.49 | 17.26
x1 = 0.5 | 16.72
x1 = 0.55 | 14.07
x1 = 0.6 | 11.39
x1 = 0.7 | 5.695
x1 = 0.8 | 2.681
x1 = 0.9 | 1.447

OCC(F)(F)C(F)(F)F + O
viscosity [mPa·s], 100 kPa
Conditions | x1 = 0.5504 | x1 = 0.6564 | x1 = 0.7892 | x1 = 0.8991
298.15 K | 2.607 | 2.626 | 2.774 | 3.069
323.15 K | 1.263 | 1.278 | 1.318 | 1.401

[I-].[Li+] + O
Conditions | viscosity [mPa·s]
293.15 K, 100 kPa, x1 = 0.005076 | 1.025
293.15 K, 101 kPa, x1 = 0.00701 | 1.029
293.15 K, 101 kPa, x1 = 0.01933 | 1.076
293.15 K, 101 kPa, x1 = 0.04884 | 1.205
293.15 K, 101 kPa, x1 = 0.06296 | 1.292
293.15 K, 101 kPa, x1 = 0.08324 | 1.429
293.15 K, 101 kPa, x1 = 0.1073 | 1.656
293.15 K, 101 kPa, x1 = 0.1418 | 2.218
303.15 K, 101 kPa, x1 = 0.0017 | 0.808
303.15 K, 101 kPa, x1 = 0.00416 | 0.813
303.15 K, 101 kPa, x1 = 0.00701 | 0.821
303.15 K, 101 kPa, x1 = 0.01933 | 0.866
303.15 K, 101 kPa, x1 = 0.02768 | 0.895
303.15 K, 101 kPa, x1 = 0.04884 | 0.977
303.15 K, 101 kPa, x1 = 0.06296 | 1.049
303.15 K, 101 kPa, x1 = 0.08324 | 1.178
303.15 K, 101 kPa, x1 = 0.1073 | 1.376
303.15 K, 101 kPa, x1 = 0.1418 | 1.819
310.15 K, 101 kPa, x1 = 0.000205 | 0.6972
310.15 K, 101 kPa, x1 = 0.00126 | 0.6998
310.15 K, 101 kPa, x1 = 0.001978 | 0.7017
310.15 K, 101 kPa, x1 = 0.002695 | 0.7035
310.15 K, 101 kPa, x1 = 0.003679 | 0.706
310.15 K, 101 kPa, x1 = 0.005197 | 0.7098
310.15 K, 101 kPa, x1 = 0.005988 | 0.7118
323.15 K, 101 kPa, x1 = 0.0017 | 0.555
323.15 K, 101 kPa, x1 = 0.00416 | 0.561
323.15 K, 101 kPa, x1 = 0.00701 | 0.567
323.15 K, 101 kPa, x1 = 0.01933 | 0.602
323.15 K, 101 kPa, x1 = 0.02768 | 0.628
323.15 K, 101 kPa, x1 = 0.04884 | 0.693
323.15 K, 101 kPa, x1 = 0.06296 | 0.752
323.15 K, 101 kPa, x1 = 0.08324 | 0.849
323.15 K, 101 kPa, x1 = 0.1073 | 1.002
323.15 K, 101 kPa, x1 = 0.1418 | 1.344

O=CC(Cl)(Cl)Cl + OCc1ccccc1
viscosity [mPa·s], 101 kPa
Conditions | 298.15 K | 323.15 K
x1 = 0.0986 | 7.956 | 3.521
x1 = 0.1891 | 12.34 | 4.774
x1 = 0.2795 | 18.57 | 6.41
x1 = 0.3562 | 21.83 | 6.783
x1 = 0.4064 | 40.42 | 9.558
x1 = 0.4364 | 50.35 | 10.85
x1 = 0.4751 | 55.16 | 10.57
x1 = 0.493 | 54.24 | 10.21
x1 = 0.4998 | 51.18 | 10.01
x1 = 0.5395 | 39.89 | 8.491
x1 = 0.5925 | 24.53 | 6.78
x1 = 0.6679 | 9.262 | 3.796
x1 = 0.7564 | 2.888 | 1.639
x1 = 0.8827 | 2.072 | 1.307
